Laboratory results from patent US9688633B2, “Substituted piperidines with antiparasitic activity” (INSTITUT DE RECHERCHE POUR LE DEVELOPPEMENT, priority 2014, dated 2017).
Where two headings read alike, the source gives them in different places.

Assays:
[1] = tested on: Plasmodium falciparum FCR-3; assay: In vitro antiplasmodial drug assay ([3H]-hypoxanthine incorporation); type: cell-based
Method: The drugs dissolved in dimethylsulfoxide (DMSO) were added at final concentrations ranging from 200 to 0.1 μM. All experiments were performed in triplicate. The final DMSO concentration was never greater than 0.1%. […].
% Inhibition of the incorporation of labeled hypoxanthine=100−(P/T*100),
P: c.p.m. for every concentration, and
T: negative control (red blood cells without drug).

[2] = Toxicity assay, MTT viability on VERO cells; type: cell-based, African Green Monkey; conditions: African green monkey
Method: (§1) Drugs were added at different concentrations and the cells were cultured for 48 hours. The effect was determined using the 3-(4,5-dimethylthiazol-2-yl)-2,5-diphenyltetrazolium bromide (MTT) viability assay. Four hours after the addition of MTT, 100 μl of lysis buffer (50% isopropanol, 30% water, 20% SDS) were added and the cells were incubated at room temperature for 15 min under agitation. Finally, optical density was read at 590 nm with a 96-well scanner (Bio-Rad). All experiments were performed in triplicate.

[3] = tested on: VERO cells; assay: Toxicity assay, MTT viability on VERO cells; type: cell-based, African Green Monkey; conditions: VERO cells survival, 48 hours, MTT; average of three independent determinations; read-out: TC50 (the source's name)
Method: as §1

[4] = tested on: P. berghei ANKA; assay: In vivo antiplasmodial drug assay (4-day suppressive test) in murine model; conditions: Swiss male mice, 4 consecutive days, read on day 4
Method: The antiplasmodial activity of Compound 7 was tested in vivo in a murine model. The antiplasmodial activity of a Compound A representative of the prior art was also tested: Studies were conducted according to the French and Colombian guidelines on laboratory animal use and care (No 2001-464 and No 008430, respectively). The classical 4-day suppressive test was carried out (W. Peters, Chemotherapy and drug resistance in malaria, Academic Press: London, 1970). Swiss male mice weighing 20±2 g, were infected with 10^7 P. berghei ANKA parasitized cells (day 0). […] […] Survival of the mice was checked daily and the percentage of parasitized erythrocytes was determined on day 4, by Giemsa-stained thin blood smears made from peripheral blood. The percentage of inhibition of parasitaemia was calculated.

[5] = tested on: mice; assay: Cytotoxicity (toxicity) after administration in a malaria murine model; type: in vivo, mouse; conditions: 50 mg·kg^-1, malaria murine model
Method: The cytotoxicity of Compound 7 was compared to the cytotoxicity of Compound 31 of the publication of Silvia Perez-Silanes et al., Molecules 2009, 14, 4120-4135, the compounds only differentiated by the nature of the Ar group (4-fluoro-1-phenyl group vs benzo[b]thiophenyl).
Both compounds were administered at 50 mg·kg^−1 in a malaria murine model.

[6] = FCR3, chloroquine-resistant FCR-3 strain, 50% of Plasmodium falciparum growth, average of three independent determinations, read-out: IC50
[7] = chloroquine-resistant FCR-3 strain, 50% of Plasmodium falciparum growth, average of three independent determinations, read-out: IC50

Work on `O=[N+]([O-])c1ccc(N2CCC(NCCC(O)c3ccc(F)c4ccccc34)CC2)c(C(F)(F)F)c1` (stereo not drawn) [Compound 5, 1-(4-fluoronaphthalen-1-yl)-3-((1-(4-nitro-2-(trifluoromethyl)phenyl)piperidin-4-yl)amino)propan-1-ol] yielded an IC50 [1, 6] of 0.15 µM and a CC50 at 48 h ([2]; VERO cells (kidney epithelial cells), VERO cells survival, 48 hours, MTT, average of three independent determinations, read-out: TC50) of 5.5 µM.
With `Cl.O=[N+]([O-])c1ccc(N2CCC(NCCC(O)c3ccc(F)cc3)CC2)c(C(F)(F)F)c1` (stereo not drawn) [Compound 7] the IC50 [1, 7] was 0.48 µM, the CC50 [3] was 30.2 µM and the “percentage of inhibition of parasitaemia” value ([4]; 50 mg/kg/day oral) was 76%. The cytotoxicity after administration [5] was “No cytotoxicity was detected”.
For “3-[4-(4-fluorophenyl)-3,6-dihydropyridin-1(2H)-yl]-1-(4-(trifluoromethyl phenyl)propan-1-ol) [Compound 4]”, the IC50 [1, 7] was 5.6 µM and the CC50 [3] was greater than 100 µM.
Work on `OC(CCN1CC=C(c2ccc(F)cc2)CC1)c1ccc(F)c2ccccc12` (stereo not drawn) [Compound 6, 1-(4-fluoronaphthalen-1-yl)-3-[4-(4-fluorophenyl)-3,6-dihydropyridin-1(2H)-yl]propan-1-ol] yielded an IC50 [1, 6] of 0.4 µM and a CC50 at 48 h [2] greater than 50 µM.
In the case of `OC(CCN1CC=C(c2ccc(F)cc2)CC1)c1ccc2ccccc2c1` (stereo not drawn) [Compound 3, 3-[4-(4-fluorophenyl)-3,6-dihydropyridin-1(2H)-yl]-1-(naphthalen-2-yl)propan-1-ol], the IC50 [1, 6] is reported as 36.1 µM, the CC50 at 48 h [2] is reported as greater than 100 µM and the melting point is reported as 127 to 129 °C.
For `CCN(CC)CCCC(C)Nc1ccnc2cc(Cl)ccc12` (stereo not drawn) [CQ, chloroquine, reference compound], the IC50 ([1]; Plasmodium falciparum, FCR3) was 0.13 µM and the “percentage of inhibition of parasitaemia” value ([4]; 3 mg/kg/day oral) was 65%.
`OC(CCN1CC=C(c2ccc(F)cc2)CC1)c1ccc(F)cc1` (stereo not drawn) [Compound 8, 1-(4-fluorophenyl)-3-[4-(4-fluorophenyl)-3,6-dihydropyridin-1 (2H)-yl]propan-1-ol] gave an IC50 [1, 6] of 0.66 µM, a CC50 at 48 h [2] greater than 100 µM and a melting point of 199 to 201 °C.
